# Columns and labels:
# buckhorn plantains = test: Field testing control of buckhorn plantain in North Carolina (Example 4); assay type: in vivo; conditions: Table 5 (FIG. 5)
# Method: The formulations were applied at a rate of 200 gpa onto sections of a plot containing buckhorn plantains and other weeds in North Carolina, U.S.A. A second application of the formulations was made 21 days following the initial application. The sections were visually inspected and rated over the course of 56 days following the initial application. Performance of the formulations was evaluated based on the percentage control of the buckhorn plantains observed in each section.
# Dandelions [1] = test: Field testing control of dandelions in Ontario (Example 5); assay type: in vivo; conditions: Table 6 (FIG. 6), 200 gpa, rated 10 and 30 days following application
# Method: Formulations containing IBA, DTPA, and combinations of IBA with various chelating agents including salts of DTPA, EDTA, ethylenediamine-N,N′-disuccinic acid (EDDS), N-(hydroxyethyl)-ethylenediaminetriacetic acid (HEDTA), and lignosulfonic acid were prepared as detailed in Table 6 the solutions were prepared in water at the concentrations indicated ([…]). The formulations were applied at a rate of 200 gpa onto sections of a plot containing dandelions and other weeds in Ontario, Canada. Injuries to the grass and dandelions were visually inspected and rated 10 days and 30 days following application of the formulations. Performance of the formulations was evaluated based on the percentage of control of the dandelions observed. Injuries to the grass were also rated using a 0-10 scale: 0=no injury; 10=plant dead, severe injury.
# Dandelions [2] = test: Control of dandelions in greenhouse study (Example 2, IBA/EDTA); assay type: in vivo; conditions: for control on weeds: Table 3 (FIG. 3), greenhouse, 200 gpa, result in words; for effect on weeds at concentrations greater than 5% by weight / herbicidal effect at concentrations lower than 5% by weight: tested alone; for effect on weeds at concentrations greater than 5% by weight: Table 3; for herbicidal effect at concentrations lower than 5% by weight: Table 3 (IBA: Tr 2-4)
# Method: (§1) Dandelions and Kentucky Bluegrass were seeded and grown in the greenhouse for at least 10 weeks before treatment. Ready-to-use formulations containing indole-3-butyric acid (IBA) and ethylenediaminetetraacetic acid (EDTA), including ethylenediaminetetraacetic acid tetrasodium salt (EDTA Na4), ethylenediaminetetraacetic acid disodium salt (EDTA Na2), and ethylenediaminetetraacetic acid calcium sodium salt, and combinations of IBA and a chelator were prepared as detailed in Table 3 with the remainder of the formulation being comprised of water. IBA was initially dissolved in KHCO3 when the acid could not be dissolved directly and then diluted in water to the concentration indicated (this is indicated below in Table 3 by the label IBA-K). The prepared formulations were applied to sections of the dandelion and Kentucky Bluegrass plots at a rate of 200 gallons per acre (gpa).
# (§2) Injuries to the grass and weeds were visually inspected and rated for 4 weeks using a 0-10 scale: 0=no injury; 10=plant dead. For turfgrass, ratings greater than 3 indicated unacceptable phytotoxicity. The numbers indicate the maximum effect observed on the various plants. When regrowth of the plants following application was observed, it is noted in the table following the overall injury score.
# Kentucky Bluegrass = test: Injury to Kentucky Bluegrass in greenhouse study (Example 2, IBA/EDTA); assay type: in vivo; conditions: tested alone, Table 3
# Method: as §1, §2
# [3] = Solubility of IBA in aqueous solutions (Example 9); assay type: physicochemical
# Description: The solubility of IBA and its salts was investigated in various aqueous solutions under different pH conditions. The effect of chelators such as EDTA and HEDTA on the solubility of IBA was also investigated. The data provided further evidence of the relatively limited water solubility of the IBA acid (<0.1%).
# [4] = Dissolving IBA when preparing formulations (Example 2); assay type: physicochemical; conditions: Treatment 10, 12 and 14 of Table 3
# Method: as §1
dissolution of a 1% solution under alkaline conditions ([3]; 1% solution of IBA),pH at which a 1% solution was stable ([3]; 1% solution of IBA),water solubility ([3]; IBA acid in water) [%],Compound,time after which the weeds began to exhibit regrowth (buckhorn plantains) [days],"control on the buckhorn plantains (buckhorn plantains; 200 gpa, second application after 21 days, rated over 56 days)",control of the dandelions (Dandelions [1]),control on weeds (Dandelions [2]),"regrowth of the weeds (Dandelions [2]; Table 3, after application)",effect on weeds at concentrations greater than 5% by weight (Dandelions [2]),herbicidal effect at concentrations lower than 5% by weight (Dandelions [2]),injury to the grass at concentrations greater than 5% by weight (Kentucky Bluegrass),dissolution of IBA in EDTA-Na4 [4]
,,,"O=C(O)CN(CCN(CC(=O)O)CC(=O)O)CCN(CC(=O)O)CC(=O)O [DTPA, diethylenetriaminepentaacetic acid]",> 25,moderate control,moderate control,,,,,,
,,,"O=C(O)CN(CCN(CC(=O)O)CC(=O)O)CC(=O)O [EDTA, ethylenediaminetetraacetic acid]",,,,low to moderate control,grow back after 14 or 28 DAT,burns the leaves of weeds,limited herbicidal effect,,
dissolves well,> 6,< 0.1,"O=C(O)CCCc1c[nH]c2ccccc12 [IBA, indole-3-butyric acid]",,,moderate control,low to moderate control,,exhibited control of the weeds,limited herbicidal effect,severe injury,can be dissolved in EDTA-Na4 directly without addition of KHCO3
